Results reported in ChEMBL document CHEMBL2046434, “Morita-Baylis-Hillman adducts: biological activities and potentialities to the discovery of new cheaper drugs” (Bioorg Med Chem, 2012).

What was measured:
[1] = tested on: HeLa; assay: Growth inhibition of human HeLa cells at 5 uM; assay type: functional; conditions: read-out: GI
[2] = tested on: Aspergillus niger; assay: Antimicrobial activity against Aspergillus niger; assay type: functional
[3] = tested on: Candida albicans; assay: Antimicrobial activity against Candida albicans; assay type: functional
[4] = tested on: Leishmania amazonensis; assay: Antileishmanial activity against Leishmania amazonensis promastigotes; assay type: functional, organism-based
[5] = tested on: Trypanosoma cruzi; assay: Antitrypanosomal activity against Trypanosoma cruzi epimastigotes; assay type: functional, organism-based
[6] = tested on: Trypanosoma cruzi; assay: Antitrypanosomal activity against Trypanosoma cruzi trypomastigotes; assay type: functional, organism-based

Compound: CC(=O)CC/C(=C/c1ccc(Cl)cc1)[N+](=O)[O-]
- inhibition of growth at 5 µM [1]: > 70%

Compound: C=C(C(=O)OCC)C(O)c1ccc(Cl)cc1Cl (stereo unspecified)
- zone of inhibition [2]: 11 mm
- zone of inhibition [3]: 15 mm

Compound: C=C(C(=O)OCC)C(O)c1ccc(F)cc1 (stereo unspecified)
- zone of inhibition [2]: 14 mm
- zone of inhibition [3]: 15 mm

Compound: C=C(C(=O)CC)C(O)c1ccc(Cl)cc1 (stereo unspecified)
- zone of inhibition [2]: 13 mm
- zone of inhibition [3]: 12 mm

Compound: C=C(C#N)C(O)c1ccc(F)cc1 (stereo unspecified)
- zone of inhibition [2]: 11 mm
- zone of inhibition [3]: 13 mm

Compound: C=C(C(=O)OCC)C(O)c1ccccc1OC (stereo unspecified)
- zone of inhibition [3]: 12 mm

Compound: Cc1ccc(S(=O)(=O)NC(/C(=C/c2cccs2)[N+](=O)[O-])c2ccco2)cc1 (stereo unspecified)
- inhibition of growth at 5 µM [1]: 28%

Compound: COc1ccc(/C=C(/C(NS(=O)(=O)c2ccc(C)cc2)c2ccccc2)[N+](=O)[O-])cc1OC (stereo unspecified)
- inhibition of growth at 5 µM [1]: 35%

Compound: Cc1ccc(S(=O)(=O)NC(/C(=C/c2ccoc2)[N+](=O)[O-])c2ccco2)cc1 (stereo unspecified)
- inhibition of growth at 5 µM [1]: 33%

Compound: C=C(C#N)C(O)c1ccc(Cl)cc1Cl (stereo unspecified)
- zone of inhibition [2]: 13 mm
- zone of inhibition [3]: 11 mm

Compound: C=C(C(=O)OC)C(O)c1cccc([N+](=O)[O-])c1 (stereo unspecified)
- IC50 [4]: 452 µM

Compound: Cc1ccc(S(=O)(=O)NC(/C(=C/c2ccoc2)[N+](=O)[O-])c2ccccc2)cc1 (stereo unspecified)
- inhibition of growth at 5 µM [1]: 28%

Compound: C=C(C(=O)OCC)C(O)c1ccc(Cl)cc1 (stereo unspecified)
- zone of inhibition [2]: 11 mm
- zone of inhibition [3]: 12 mm

Compound: COc1ccc(/C=C(/C(NS(=O)(=O)c2ccc(C)cc2)c2ccccc2)[N+](=O)[O-])cc1 (stereo unspecified)
- inhibition of growth at 5 µM [1]: 23%

Compound: C=C(C#N)C(O)c1cccc([N+](=O)[O-])c1 (stereo unspecified)
- zone of inhibition [2]: 14 mm
- zone of inhibition [3]: 10 mm

Compound: C=C(C#N)C(O)c1ccccc1Cl (stereo unspecified)
- zone of inhibition [2]: 14 mm
- zone of inhibition [3]: 13 mm

Compound: C=C(C#N)C(O)c1ccccc1OC (stereo unspecified)
- zone of inhibition [2]: 12 mm

Compound: C=C(C#N)C(O)c1ccc(Cl)cc1 (stereo unspecified)
- zone of inhibition [2]: 12 mm
- zone of inhibition [3]: 13 mm

Compound: C=C(C#N)C(O)c1ccc([N+](=O)[O-])cc1 (stereo unspecified)
- IC50 [5]: 28.5 µM
- IC50 [6]: 25.5 µM
- zone of inhibition [2]: 12 mm
- zone of inhibition [3]: 12 mm

Compound: C=C(C(=O)OC)C(O)c1ccccc1[N+](=O)[O-] (stereo unspecified)
- IC50 [4]: 50.1 µM
- zone of inhibition [2]: 11 mm
- zone of inhibition [3]: 12 mm

Compound: Cc1ccc(S(=O)(=O)NC(/C(=C/c2ccco2)[N+](=O)[O-])c2ccco2)cc1 (stereo unspecified)
- inhibition of growth at 5 µM [1]: 32%

Compound: C=C(C(=O)OCC)C(O)c1ccccc1Cl (stereo unspecified)
- zone of inhibition [2]: 14 mm
- zone of inhibition [3]: 13 mm

Compound: Cc1ccc(S(=O)(=O)NC(/C(=C/c2ccsc2)[N+](=O)[O-])c2ccccc2)cc1 (stereo unspecified)
- inhibition of growth at 5 µM [1]: 45%

Compound: Cc1ccc(S(=O)(=O)NC(/C(=C/c2ccc3c(c2)OCO3)[N+](=O)[O-])c2ccccc2)cc1 (stereo unspecified)
- inhibition of growth at 5 µM [1]: 29%

Compound: C=C(C(=O)OCC)C(O)c1cccc([N+](=O)[O-])c1 (stereo unspecified)
- zone of inhibition [2]: 13 mm
- zone of inhibition [3]: 14 mm

Compound: C=C(C#N)C(O)c1ccccc1[N+](=O)[O-] (stereo unspecified)
- zone of inhibition [2]: 11 mm
- zone of inhibition [3]: 13 mm

Compound: C=C(C(=O)OC)C(O)c1ccc([N+](=O)[O-])cc1 (stereo unspecified)
- IC50 [4]: 196 µM
- zone of inhibition [3]: 13 mm

Compound: Cc1ccc(S(=O)(=O)NC(/C(=C/c2ccco2)[N+](=O)[O-])c2ccccc2)cc1 (stereo unspecified)
- inhibition of growth at 5 µM [1]: 44%

Compound: C=C(C(=O)OCC)C(O)c1ccc([N+](=O)[O-])cc1 (stereo unspecified)
- zone of inhibition [2]: 12 mm
- zone of inhibition [3]: 11 mm

Compound: Cc1ccc(S(=O)(=O)NC(/C(=C/c2cccs2)[N+](=O)[O-])c2ccccc2)cc1 (stereo unspecified)
- inhibition of growth at 5 µM [1]: 49%

Compound: CC(=O)CC/C(=C/c1ccccc1)[N+](=O)[O-]
- inhibition of growth at 5 µM [1]: > 70%

Compound: COc1ccc(/C=C(/CCC(C)=O)[N+](=O)[O-])cc1
- inhibition of growth at 5 µM [1]: > 70%
